Assay results published in patent EP0097072A1, “Derivatives of benzylsulfinyl acetamides, their therapeutic use and process for their preparation” (LABORATOIRE L. LAFON Société anonyme dite:, priority 1982, dated 1983).

Experiments:
Assay type in all cases: in vivo
souris mâle [1] = test: Toxicity: DL-0 (maximal non-lethal dose); conditions: male mouse, I.P. route
Protocol: (§1) Les résultats des essais qui ont été entrepris ont été résumés ci-après. Dans ces essais, le CRL 40569 (produit de l'exemple 1) en suspension dans une solution aqueuse de gomme arabique, et le CRL 40615 (produit de l'exemple 2) en solution dans de l'eau distillée ont été administrés par voie intrapéritonéale sous un volume de 20 ml/kg chez la souris mâle et sous un volume de 5 ml/kg chez le rat mâle.
La DL-0 (dose maximale non mortelle) chez la souris mâle par voie I.P. pour les CRL 40569 et CRL 40615 est supérieure à 1024 mg/kg.

souris mâle [2] = test: Global behaviour and reactivities in the mouse; conditions: I.P., 512 mg/kg, observed 15 min to 24 h after administration
Protocol: as §1
(§2) Des lots de 3 animaux par dose et par produit sont observés avant,puis 15 minutes, 30 minutes, 1 h, 2h, 3h et 24 h après administration des CRL 40569 et CRL 40615.

rat mâle = test: Global behaviour and reactivities in the rat; conditions: I.P.
Protocol: as §1, §2

souris [3] = test: Action on spontaneous motility (actimeter); conditions: mouse, recorded 30 min, starting half an hour after dosing
Protocol: as §1
Une demi-heure après avoir reçu les produits à tester, les souris (6 par dose et par produit, 12 témoins pour chaque produit) sont placées en actimètre ou leur motilité est enregistrée pendant 30 minutes.

souris [4] = test: Action on intergroup aggressiveness (number of fights); conditions: mouse, notably at 512 mg/kg I.P.; groups joined half an hour after dosing, fights counted over 10 minutes
Protocol: as §1
Après avoir séjourné pendant 3 semaines de part et d'autre d'une cloison opaque séparant leur cage par le milieu, des groupes de 3 souris reçoivent le CRL 40615. Une demi-heure plus tard, les deux groupes d'une même cage sont réunis par retrait de la cloison et ou note le nombre de combats qui surviennent en 10 minutes.

rats = test: Interaction with amphetamine (amphetamine stereotypies); conditions: rat, 256 mg/kg I.P.; amphetamine 2 mg/kg I.P. half an hour after the compound
Protocol: as §1
Des lots de 6 rats reçoivent une injection par voie I.P. de 2 mg/kg d'amphétamine une demi-heure après le CRL 40569.

| Compound | DL-0 (dose maximale non mortelle) (souris mâle [1]) [mg/kg] | comportement global et réactivités (souris mâle [2]; 128 mg/kg and 32 mg/kg) | comportement global et réactivités (rat mâle; 256 mg/kg) | motilité spontanée (souris [3]; I.P., high dose (512 mg/kg)) | nombre de combats (souris [4]) | comportement global et réactivités (souris mâle [2]) | comportement global et réactivités (rat mâle; at none of the doses used (256, 64, 16 and 4 mg/kg)) | motilité spontanée (souris [3]; I.P., 32, 128 and 512 mg/kg) | intensité des stéréotypies amphétaminiques (rats) |
| --- | --- | --- | --- | --- | --- | --- | --- | --- | --- |
| COc1ccc(C[S+]([O-])CC(=O)NCCN2CCOCC2)cc1 (stereo not drawn) [CRL 40615, N-β-morpholinoéthyl-4-méthoxybenzylsulfinyl-acétamide] | > 1024 | sédation pendant 15 à 30 minutes puis une excitation tardive qui se manifeste 24 h après administration | diminution du tonus musculaire | diminue la motilité spontanée | diminue le nombre de combats | – | – | – | – |
| COc1ccc(C[S+]([O-])CC(N)=O)cc1 (stereo not shown) [CRL 40569, 4-méthoxybenzylsulfinyl-acétamide] | > 1024 | – | – | – | – | diminution fugace de la réactivité au toucher, de la force et du tonus musculaire | n'a entraîné des modifications nettes du comportement et des réactivités | diminution de la motilité spontanée | diminue légèrement l'intensité des stéréotypies amphétaminiques |
